Converted amounts (≈) assume the structure as drawn. Where two headings read alike, the source gives them in different places.
How the values were obtained:
[1] = Short-term (bench-top) and frozen storage stability of MJC13 in rat plasma and rat urine; type: in vitro ADME
Method: Short-term stability (bench-top stability) of MJC13 in rat plasma and rat urine were evaluated by analyzing triplicates of QC samples at low, medium, and high concentrations. Plasma samples were removed from frozen storage (−20° C.) and remained on the bench-top for 2, 4, or 6 hours. All of those samples were compared with freshly prepared samples at the same concentrations. […] Another set of plasma samples were stored at −80° C. for 7 days.
(§1) The stability of MJC13 in rat urine was conducted in the same fashion as in rat plasma.

[2] = Freeze-thaw stability of MJC13 in rat plasma and rat urine; type: in vitro ADME
Method: Freeze-thaw stability of MJC13 in rat plasma and rat urine were evaluated by analyzing QC samples at low, medium, and high concentrations. Plasma samples that were exposed for three cycles of freezing (at −20° C.) and thawing (at room temperature) were compared with freshly prepared samples at the same concentrations.
as §1

[3] = Processed sample (autosampler) stability of MJC13 rat plasma and urine extracts; type: physicochemical; details: for average recoveries: acetonitrile with IS; for recoveries: acetonitrile without IS
Method: Processed sample stability (on-instrument or autosampler stability) of MJC13 rat plasma extracts and rat urine extracts were evaluated by analyzing QC samples at low, medium, and high concentrations. Two sets of plasma samples were extracted with acetonitrile with and without IS, respectively. The plasma extracts were kept in the autosampler for 2, 4, or 6 hours, before injecting into the LC-MS/MS. All of those samples were compared with freshly prepared samples at the same concentrations.

[4] = Solubility of MJC13 in various solvents, shake-flask method; type: physicochemical; details: thermodynamic from solid
Method: The solubility of MJC13 was evalulated. Because there is no ionizable functional group on the molecular structure, the solubility of MJC13 was expected to be low in water and barely affected by pH. In this work, the solubility of MJC13 in water, ethanol, propylene glycol, polyethylene glycol 400 (PEG 400), polysorbate 80 (Tween 80), olive oil, peanut oil, soybean oil, CAPTEX 200 and LABRAFAC Lipophile WL1349 was determined by a shake-flask method. Briefly, an excess amount of MJC13 was added to each capped glass bottle containing the selected vehicle and mixed for 48 hours at room temperature using a reciprocating shaker. The samples were centrifuged at 3000 rpm for 10 minutes and were subsequently filtered through a 0.22 μm ultrafiltration unit. The filtrates were analyzed by LC/MS/MS to determine the concentration of drug dissolved. The experiments were conducted in triplicate.

[5] = Lipophilicity (log P) between water and 1-octanol, shake-flask; type: physicochemical; details: 1-octanol/water, room temperature, read-out: experimental log P
Method: The lipophilicity of MJC13 was determined as the logarithm of partition coefficient (log P) of the solute between water and 1-octanol. Equal volumes of two-phase solution (water and 1-octanol) was mixed well in a capped glass bottle and then placed in a shaker for 24 hours to make sure that saturation equilibrium had been achieved. MJC13 (1 mL) dissolved in the two-phase solution was added the bottle. Then, MJC13 was partitioned between aqueous and 1-octanol for 72 hours at room temperature using the shake-flask method. The mixture from the bottle was centrifuged at 3000 rpm for 10 minutes and subsequently filtered through a 0.22 μm ultrafiltration unit, and then moved to a separatory funnel for phase separation. The aqueous and 1-octanol phases were analyzed by LC-MS/MS to determine the concentration of drug dissolved. Experiments were conducted in triplicate. The log P was calculated according to Eq. 3: […]
where Co and Cw represent the concentrations of MJC13 in 1-octanol and aqueous phase, respectively.

[6] = Rat plasma protein binding by ultrafiltration; type: in vitro ADME; details: 37° C.
Method: In vitro rat plasma samples of MJC13 were prepared by diluting the stock solution with acetonitrile and spiking in rat plasma at five different concentrations: 100, 500, 1000, 2000 and 5000 ng/mL to approximate the plasma concentrations of MJC13 in rats after 2 mg/kg intravenous bolus dosing. The plasma was incubated at 37° C. for 1 hours before being transferred to Amicon Ultra-0.5 mL Centrifugal Filters (EMD Millipore Corporation, Billerica, Mass.) for ultrafiltration at 3000 rpm for 10 minutes. Filtrate and nonfiltrate concentrations were determined by LC-MS/MS. The fraction unbound, fu, was determined as Eq. 4:
where Cu is the unbound concentration and Ct is the total concentration.

[7] = Pharmacokinetics of MJC13 (Formulation PT4) after IV bolus in rats, three-compartment model; type: in vivo, Sprague-Dawley rats; details: single IV bolus 2 mg/kg, Formulation PT4, n = 8; for half-life / Vd: iv, 2 mg/kg
Method: To further determine the fate of MJC13 in live animals and verify the applicability of the developed LC/MS/MS assay and formulations, pharmacokinetic studies were performed in rats. The animal experiment and protocol were reviewed and approved by the Institutional Animal Care and Use Committee at Texas Southern University. The jugular veins of eight male adult Sprague-Dawley rats (358˜377 g) were cannulated under anesthesia using a cocktail of ketamine:acetopromazine:xylazine (50:3.3:3.3 mg/kg) the day before the study. On the day of study, Formulation PT4, which includes PEG 400 and Tween 80 (1:1, v/v) with a MJC13 concentration of 7.5 mg/mL, was diluted to 1 mg/mL by normal saline. Blood and urine samples were collected from each rat right before dosing. Each rat was given a 2 mg/kg intravenous (IV) bolus dose of MJC13. Blood sample collecting tubes were heparinized and dried. In order to avoid any possible contamination, after dosing for each rat, the foremost part of each tubing associated with the needle for dosing was cut off, and then 0.5 mL of normal saline containing 20 U/mL heparin was injected to flush the tubing. Blood samples (250 μL; n=8) were collected at 5, 10, 15, 30 minutes, 1, 2, 4, 6, 8, 12, 24, 48 and 72 hours post injection, respectively. The blood samples were centrifuged at 13,000 rpm for 10 minutes and the supernatants (plasma) were obtained and immediately stored at −80° C. until analysis. Urine samples (n=4) were collected periodically, including 0-2, 2-4, 4-8, 8-12, 12-24, 24-48 and 48-72 hours post injection. After measurement of the overall urinary volume of each interval, urine samples were immediately stored at −80° C. until analysis. Within 48 hours, those plasma and urine samples were analyzed by the LC/MS/MS method of Example 1 to obtain MJC13 concentrations. After analysis, the plasma concentrations and cumulative urinary excretions of MJC13 were presented as the mean value with standard deviation (SD) and plotted against time by SigmaPlot 12.3 (Systat Software, San Jose, Calif.). (FIGS. 5, 6, 7A, and 7B).
The intravenous drug plasma concentration-time data were pharmacokinetically analyzed separately for each rat by compartmental modeling using the microcomputer-based nonlinear regression program, WINNONLIN software 5.2.1 (Pharsight Corporation, Mountain View, Calif.). A three-compartment model was provided which best described the fit for the IV bolus administration based on the appearance of the observed and predicted concentrations, the reduction in the sums of squares, and the Akaike's information criterion (Yamaoka et al., J. Pharmacokinet Biopharm., 6(2): 165-75 (1978)). The three-compartment model is described by Eq. 5:
Ct=A·e^−αt+B·e^−βt+C·e^−γt, Eq. 5
where A, B and C are the coefficients, α is the α-phase hybrid rate constant, β is β-phase hybrid rate constant, γ is the γ-phase hybrid rate constant, and Ct is the plasma concentration of MJC13 at time t. The pharmacokinetic parameters thus derived were the systemic or plasma clearance (Cl), the volume of distribution (Vd), the total area under the plasma drug concentration-time curve (AUC), and half-lives (T1/2).

[8] = Solubility of MJC13 in 50% (w/v) HP-β-CD aqueous solution; type: physicochemical
Method: An excess amount of MJC13 was added to a sealed glass vial (2 ml) containing saturated (50% w/v) 2-hydroxypropyl-β-cyclodextrin (HP-β-CD) aqueous solution. The vial was shaken at room temperature for 72 hours. Thereafter, the solution was centrifuged, filtered through a 0.2 μm membrane and analyzed for MJC13 by the LC/MS/MS method of Example 1. Experiments were conducted in triplicate. […] It is believed that the resulting pharmaceutical composition has improved biocompatibility because it lacks TWEEN 80 (polysorbate 80).

[9] = Solubility of MJC13 in various solvents, shake-flask method; type: physicochemical; details: DMSO, organic solvent or mixture
AR = details: cellular models of prostate cancer, micromolar concentrations; cited from earlier work
[10] = rat plasma extract, autosampler 2 hours
[11] = rat plasma extract, autosampler 4 hours
[12] = rat plasma extract, autosampler 6 hours
[13] = rat urine extract, autosampler 2 hours
[14] = rat urine extract, autosampler 4 hours
[15] = rat urine extract, autosampler 6 hours

average MJC13 amount remaining ([1]; rat plasma, bench-top, 2 hours): 98.6±1.7%
average MJC13 amount remaining ([1]; rat plasma, bench-top, 4 hours): 97.6±2.0%
average MJC13 amount remaining ([1]; rat plasma, bench-top, 6 hours): 97.4±1.2%
average recoveries ([1]; rat plasma, stored at −80° C. for 7 days): 96.4±1.4%
average MJC13 amount remaining ([1]; rat urine, bench-top, 2 hours): 97.9±2.5%
average MJC13 amount remaining ([1]; rat urine, bench-top, 4 hours): 99.1±1.9%
average MJC13 amount remaining ([1]; rat urine, bench-top, 6 hours): 96.7±2.8%
average MJC13 amount remaining ([1]; rat urine, stored at −80° C. for 7 days): 95.9±2.7%
average MJC13 amount remaining ([2]; rat plasma, three freeze (−20° C.)-thaw (room temperature) cycles): 96.7±2.0%
average MJC13 amount remaining ([2]; rat urine, three freeze-thaw cycles): 97.5±2.4%
average recoveries [3, 10]: 97.6±1.3%
average recoveries [3, 11]: 98.3±1.5%
average recoveries [3, 12]: 96.7±0.7%
recoveries [3, 10]: 96.1±1.3%
recoveries [3, 11]: 97.6±1.1%
recoveries [3, 12]: 97.7±2.4%
average recoveries [3, 13]: 95.8±3.2%
average recoveries [3, 14]: 98.6±2.5%
average recoveries [3, 15]: 97.9±1.7%
recoveries [3, 13]: 97.4±2.2%
recoveries [3, 14]: 97.1±1.9%
recoveries [3, 15]: 96.4±3.3%
solubility at 48 h ([4]; Captex 200, oil or lipid, Captex ® 200, room temperature, read-out: Solubility): 31.9 ± 1.6 mg/mL (≈ 117 mM)
solubility at 48 h ([4]; Labrafac Lipophile WL1349, oil or lipid, Labrafac ™ Lipophile WL1349, room temperature, read-out: Solubility): 24 ± 1.1 mg/mL (≈ 88.2 mM)
solubility at 48 h ([4]; PEG 400, organic solvent or mixture, PEG 400, room temperature, read-out: Solubility): 23 ± 0.7 mg/mL (≈ 84.5 mM)
solubility at 48 h ([4]; ethanol, organic solvent or mixture, Ethanol, room temperature, read-out: Solubility): 35.6 ± 1.8 mg/mL (≈ 131 mM)
solubility at 48 h ([4]; olive oil, oil or lipid, Olive oil, room temperature, read-out: Solubility): 16.2 ± 0.3 mg/mL (≈ 59.5 mM)
solubility at 48 h ([4]; peanut oil, oil or lipid, Peanut oil, room temperature, read-out: Solubility): 15.6 ± 0.4 mg/mL (≈ 57.3 mM)
solubility at 48 h ([4]; polysorbate 80 (Tween 80), organic solvent or mixture, Polysorbate 80, room temperature, read-out: Solubility): 28.2 ± 0.7 mg/mL (≈ 104 mM)
solubility at 48 h ([4]; propylene glycol, organic solvent or mixture, Propylene glycol, room temperature, read-out: Solubility): 5.7 ± 0.2 mg/mL (≈ 20.9 mM)
solubility at 48 h ([4]; soybean oil, oil or lipid, Soybean oil, room temperature, read-out: Solubility): 17.3 ± 0.5 mg/mL (≈ 63.6 mM)
solubility at 48 h ([4]; water, Water, room temperature, read-out: Solubility): 0.00028 mg/mL (≈ 0.00103 mM)
solubility at 48 h ([4]; water, water, room temperature, read-out: water solubility): 0.00028 mg/mL (≈ 0.00103 mM)
logP at 72 h [5]: 6.49 ± 0.37
fraction bound at 1 h, 100 ng/mL ([6]; 100 ng/mL): 0.981 ± 0.015
fraction bound at 1 h, 500 ng/mL ([6]; 500 ng/mL): 0.976 ± 0.027
fraction bound at 1 h, 1000 ng/mL ([6]; 1000 ng/mL): 0.996 ± 0.017
fraction bound at 1 h, 2000 ng/mL ([6]; 2000 ng/mL): 0.972 ± 0.028
fraction bound at 1 h, 5000 ng/mL ([6]; 5000 ng/mL): 0.979 ± 0.024
clearance ([7]; male, Sprague-Dawley, plasma, rat, read-out: Cl (total body clearance)): 6.04 ± 2.43 mL/min/kg
half-life ([7]; male, Sprague-Dawley, rat, plasma, rat plasma, read-out: T1/2α (elimination half-life of α-phase)): 0.094 ± 0.0217 h
half-life ([7]; male, Sprague-Dawley, rat, plasma, rat plasma, read-out: T1/2β (elimination half-life of β-phase)): 2.1 ± 0.317 h
half-life ([7]; male, Sprague-Dawley, rat, plasma, rat plasma, read-out: T1/2γ (elimination half-life of γ-phase)): 32.3 ± 12.1 h
Vd ([7]; male, Sprague-Dawley, rat, plasma, rat, read-out: V1 (volume of distribution of central compartment)): 0.744 ± 0.074 L/kg
Vd ([7]; male, Sprague-Dawley, rat, plasma, rat, read-out: Vss (volume of distribution at steady state)): 10.8 ± 2.13 L/kg
AUC(0-inf) ([7]; male, Sprague-Dawley, rat plasma, read-out: AUC0-∞ (area under curve from time zero to infinity) (converted)): 6640 ng·h/mL
Cmax ([7]; male, Sprague-Dawley, rat plasma, read-out: Cmax (maximum concentration)): 2710 ± 251 ng/mL
A (coefficient of α-phase) ([7]; rat plasma): 2124 ± 222 ng/mL
B (coefficient of β-phase) ([7]; rat plasma): >483 ± 126 ng/mL
C (coefficient of γ-phase) ([7]; rat plasma): 101 ± 36 ng/mL
V2 (volume of distribution of first peripheral compartment) ([7]; rat): 2.038 ± 0.646 L/kg
V3 (volume of distribution of second peripheral compartment) ([7]; rat): 8.068 ± 1.6 L/kg
solubility at 72 h ([8]; 50% (w/v) HP-β-CD aqueous solution, aqueous with cosolvent or surfactant or cyclodextrin, thermodynamic from solid, room temperature, 72 hours): 2.6 ± 0.3 mg/mL (≈ 9.55 mM)
increase of solubility compared to MJC13 itself in pure water ([8]; 50% (w/v) HP-β-CD solution vs pure water): 10,000 fold
solubility [9]: > 100 mg/mL
SMILES: O=C(Nc1cccc(Cl)c1Cl)C1CCCCC1 [MJC13]
block of AR-dependent gene expression (AR): effectively block AR-dependent gene expression

Source: US20160030369A1, “FKBP52 TARGETING AGENT PHARMACEUTICAL COMPOSITIONS” (THE UNITED STATES OF AMERICA AS REPRESENTED BY THE …, priority 2013, published 2016)
